This data set is described as follows: Storage test at 60° C. and 68% relative humidity, vitamin A analysed by UPLC. The class given is physicochemical. The settings on record: storage at 60° C. and 68% RH; 0.825 wt. % vitamin A palmitate in oil; FIGS. 1 to 7. The procedure:
Palm oil (SUNIA), and vitamin A palmitate (Vitamin A Palmitate 1.7 MIU/g-DSM) were heated in an oven at 60°. Vitamin A palmitate was not held above 60° C. for longer than 5 minutes to avoid possible degradation. The oil was mixed with vitamin A palmitate in a 0.5 liter Schott bottle and then stirred for 10 minutes in a 50° C. water bath. Initial vitamin A palmitate content was 0.825% in oil (a vitamin A palmitate content of 0.165 wt. % in powdered bran). The total amount of lipid was 100 g. A quantity of 10 g of lipid containing vitamin A palmitate was then mixed with 40 g of powdered rice bran with or without phytic acid (Herba Ingredients) in a mortar during 5 minutes. […]
A quantity of 10 g of lipid containing 0.825 wt. % of vitamin A palmitate was mixed with 40 g of wheat bran in a mortar during 5 minutes. […]
A quantity of 10 g of lipid containing 0.825 wt. % of vitamin A palmitate was mixed with 40 g of maltodextrin DE21 in a mortar during 5 minutes. […]
A quantity of 10 g of lipid containing 0.825 wt. % of vitamin A palmitate and 1.87 g of iron pyrophosphate powder were mixed with 38.13 g of powdered rice bran (Herba Ingredients) in a mortar during 5 minutes. […]
For the storage tests, the crystallizing dishes were transferred into a climatic chamber regulated at 60° C. and 68% relative humidity, before being analyzed. […]

`CCCCCCCCCCCCCCCC(=O)OC/C=C(C)/C=C/C=C(C)/C=C/C1=C(C)CCCC1(C)C` [vitamin A palmitate, retinyl palmitate]: the “vitamin A stability (degradation curves)” value was “very sensitive to temperature and degrades fast”.
